Measured values as given in ChEMBL document CHEMBL1143922, “Pharmacophore identification of Raf-1 kinase inhibitors” (Bioorg Med Chem Lett, 2008).

What follows are compounds tested against RAF proto-oncogene serine/threonine-protein kinase (Homo sapiens, UniProt P04049) (assay: Inhibition of Raf1 kinase).
Chain of RAF proto-oncogene serine/threonine-protein kinase (P04049 whole entry): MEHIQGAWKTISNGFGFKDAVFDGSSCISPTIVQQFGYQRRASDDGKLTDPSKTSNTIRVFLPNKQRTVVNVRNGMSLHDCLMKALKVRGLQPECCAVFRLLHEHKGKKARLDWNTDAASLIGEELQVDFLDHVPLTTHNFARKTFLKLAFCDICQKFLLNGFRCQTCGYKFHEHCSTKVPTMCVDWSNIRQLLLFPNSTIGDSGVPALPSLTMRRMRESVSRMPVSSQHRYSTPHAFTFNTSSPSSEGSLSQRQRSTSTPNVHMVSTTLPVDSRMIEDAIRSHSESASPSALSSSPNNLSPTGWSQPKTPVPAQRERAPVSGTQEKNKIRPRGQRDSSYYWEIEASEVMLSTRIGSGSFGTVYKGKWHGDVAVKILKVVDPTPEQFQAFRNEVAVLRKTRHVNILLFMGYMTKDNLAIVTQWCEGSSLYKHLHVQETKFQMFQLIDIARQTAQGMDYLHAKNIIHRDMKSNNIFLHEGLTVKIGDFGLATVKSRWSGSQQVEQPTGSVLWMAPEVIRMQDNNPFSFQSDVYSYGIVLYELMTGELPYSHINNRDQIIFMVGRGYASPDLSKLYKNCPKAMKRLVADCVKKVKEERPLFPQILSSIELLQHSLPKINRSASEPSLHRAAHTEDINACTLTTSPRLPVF

IC50 [nM]	Compound
1000	Cc1cccc(C)c1/C=C/c1cncc(C#N)c1
6300	CC(C)(C)c1cc(NC(=O)Nc2ccc(Oc3ccc(C(=O)O)cc3)cc2)no1
25000	COC(=O)c1nc(C(C)(C)C)sc1NC(=O)Nc1ccc(C)cc1
1.4	Oc1cc(-c2nc(-c3ccccc3)[nH]c2-c2ccncc2)ccc1Cl
630	Cc1cc(-c2cccnc2)cc(C)c1/C=C/c1cncc(-c2nn[nH]n2)c1
100	Cc1cc(-c2ccccn2)cc(C)c1/C=C/c1cncc(-c2nn[nH]n2)c1
13	NC(=O)c1cc(Oc2ccc(NC(=O)Nc3ccc(Cl)c(C(F)(F)F)c3)cc2)ccn1
6300	CC(C)(C)c1nnc(NC(=O)Nc2ccc(Oc3ccncc3)cc2)o1
3500	CN(c1ccncc1)c1ccc(NC(=O)Nc2cc(C(C)(C)C)on2)cc1
8600	CC(C)(C)c1nnc(NC(=O)Nc2ccc(Oc3ccncc3)cc2)s1
158	Cc1cc(O)cc(C)c1/C=C/c1cncc(C(N)=O)c1 [GW435821X]
250	CNC(=O)c1cncc(/C=C/c2c(C)cccc2C)c1 [GW445012X]
251	CNC(=O)c1cncc(/C=C/c2c(Cl)cccc2Cl)c1 [GW445014X]

Compound	IC50 [nM]
CNC(=O)Oc1cc(C)c(/C=C/c2cncc(C#N)c2)c(C)c1	40
CNC(=O)Oc1cc(C)c(/C=C/c2cncc(C(N)=O)c2)c(C)c1	7
CNC(=O)Oc1cc(C)c(/C=C/c2cncc(C(=O)O)c2)c(C)c1	6
CNC(=O)Oc1cc(C)c(/C=C/c2cncc(C(=O)NC)c2)c(C)c1 [GW432441X]	10
